≈ marks a conversion by molar mass, not a printed value. Bridge positions count the residues as written; N and C are the ends. Ends that are not written are not given here. Peptide text beside a SMILES is read from it.
Tests used:
[1] = system: Candida albicans ATCC 64549; assay: fungicidal and growth inhibitory activity, Candida albicans ATCC 64549 (Example 8); assay type: cell-based; settings: for Concentration of agent for 100% killing: C. albicans ATCC 64549 1·10^5/ml, 2 hours 37° C., diluted BHI; for Concentration of agent for inhibition of growth: C. albicans ATCC 64549, spectrophotometrically after 20 hours
Protocol: Candida albicans ATCC 64549 (1·10^5/ml) was incubated in the presence of the peptides during 2 hours at 37° C. in diluted growth medium (BHI, twofold serial dilutions starting with 50 μg/ml). The fungicidal activity was measured by culturing 5 μl from each incubation well on Saboroud agar plates.
The inhibition of growth was measured spectrophotometrically after 20 hours of incubation.

E. coli O14 [2] = assay: bactericidal and growth inhibitory activity, E. coli O14 (Example 9); assay type: cell-based; settings: for Concentration of agent for 100% killing: E. coli O14, 2 hours; for Concentration of agent for inhibition of growth: E. coli O14, spectrophotometrically after 20 hours
Protocol: E. coli O14 was incubated as described above in the presence of the peptides during 2 hours. The bactericidal activity was measured in the same way as described above.
The inhibition of growth was measured spectrophotometrically after incubation during 20 hours.

C. albicans [3] = assay: concentration for killing of 99% of C. albicans at different pH (Example 13, FIG. 2); assay type: cell-based; settings: for concentration needed for killing of 99% of C. albicans, compared with the capped cyclic peptides (in words): FIG. 2, different pH
From the text: In this example the concentrations needed of three peptides according to the invention for killing of 99% of C. albicans at different pH was compared to a reference peptide. The peptides according to the invention were peptide 2 (linear), peptide 3 (cyclic), peptide 4 (linear), peptide 5 (cyclic) and peptide 7 (lactam bridged), all capped. The reference peptides used were an uncapped cyclic form and an uncapped linear form of a Morinaga peptide, Morinaga 24 and 25. The results are illustrated in FIG. 2.

C. albicans (ATCC 64549) = assay: microbe, parasite or virus in culture
Protocol: (§1) In the examples, the minimal microbicidal concentrations (MMC) and minimal inhibitory concentrations (MIC) were determined as follows, unless otherwise specified in the examples. Bacterial or fungal strains were cultured in BHI medium over night at 37° C. A volume of the culture was transferred to a new tube with BHI and incubated for two more hours. Thereafter the cells were spun down and the pellet was suspended in BHI medium diluted 1/100 (1% BHI). The concentration of bacterial or fungal cells was spectrophotometrically determined at 650 nm. The microbial concentrations were also determined by viable counts. Peptides serially diluted in 1% BHI by twofold or tenfold steps were added in triplicate to the wells of a microtiterplate (200 μl per well). The bacterial or fungal cell solutions were added in 10 μl volumes to give a final concentration of approximately 1-5×10^5 cells per ml in the well. The microplate was incubated at 37° C. in a humid chamber for two hours. Thereafter 5 μl was taken from each well and added as a drop onto a blood agar plate and incubated over night at 37° C. The microplate was incubated for another 20 hours at 37° C. and thereafter analysed spectrophotometrically at 650 nm in a microplate reader (Emax, Molecular Devices, USA). The concentration of peptide causing a 99% reduction of the inoculum after 2 hours of incubation was defined as the MMC99%. The MIC value was defined as the concentration giving no increase in the absorbance value above the background level after 20 hours of incubation.
In this example the fungicidal activity of one of the peptides according to the invention, the peptide with SEQ. ID. NO. 7, was compared to the conventional antifungal agents flucytosine and fluconazole, and also to human lactoferrin (hLF). The antifungal agents were tested on C. albicans (ATCC 64549) in a concentration of 2×10^5 cells/ml. The tests were performed in BHI medium diluted 1/100.

[4] = system: reference strain of S. aureus; assay: bactericidal activity, reference strain of S. aureus (Example 19); assay type: cell-based; settings: reference strain of S. aureus 5.0×10^5 per ml, 2 hours at 37° C., lowest concentration tested 6.25 μg/ml
Protocol: In this example the bactericidal activity of three of the peptides according to the invention was studied in a test with a reference strain of S. aureus. A bacterial solution with a concentration of 5.0×10^5 S. aureus bacterial per ml was used. The concentration of each peptide needed to kill 99% of the bacteria (MMC99%) was determined after 2 hours of incubation at 37° C. The lowest concentration tested was 6.25 μg/ml.

E. coli O6K5 [5] = assay: microbicidal activity MMC99%, E. coli O6K5 (Example 28); assay type: cell-based; settings: E. coli O6K5 (Table 24)
Protocol: as §1
(§2) In this example the microbicidal activity of eight of the peptides according to the invention was studied, and tested against E. coli O6K5 and C. albicans.
(§3) The concentration of each peptide needed to kill 99% of the microorganisms (MMC99%) was determined.

C. albicans [6] = assay: microbicidal activity MMC99%, C. albicans (Example 28); assay type: cell-based; settings: C. albicans (Table 24)
Protocol: as §1, §2, §3

E. coli O14 [7] = assay: bactericidal activity, incubation with E. coli O14 (Example 3, exp. I and III); assay type: cell-based
Protocol: Human lactoferrin (hLF), peptide 3, and peptide 4, respectively, were incubated with two different strains of E. coli, E. coli O14 (experiment I) and O6K5 (experiment II), in diluted growth medium ( 1/100 BHI—brain heart infusion) for 2 hours. The peptides were also incubated with E. coli O14 in 0.05 mM KCl (pH 7) without any growth medium (experiment III). Different concentrations of the peptides were tested.
After the incubation, samples were taken for bacterial plating. Serial dilutions of five- and fourfold steps were used in experiments I and II, respectively, and of twofold steps in experiment III.
The concentrations of the different peptides required for killing 100% (experiments I and II) or 90% (experiment III) of the bacteria are given in table 2.

Candida albicans = assay: fungicidal activity against Candida albicans strains (Example 4); assay type: cell-based
Protocol: (§4) In this example the fungicidal activity of the peptides according to the invention was tested and compared to the fungicidal activity of human lactoferrin. Different concentrations of hLF, peptide 3 and peptide 4 were incubated with different strains of Candida albicans and Candida krusei during 1-2 hours at 37° C. in 0.05 mM KCl at pH 7.0 at two different occasions—experiment I and II, respectively. After incubation samples were taken for plating on Saboroud plates.

Candida krusei = assay: fungicidal activity against Candida krusei strains (Example 4); assay type: cell-based; settings: Exp. I
Protocol: as §4

[8] = system: LPS-induced IL-6 response in a monocytic cell line (THP-1); assay: inhibition of LPS-induced IL-6 response in THP-1 cells (Example 5); assay type: cell-based; settings: IL-6 response in THP-1 cells, agent added 30 minutes after LPS
Protocol: In this example an in vitro test was performed to study the anti-inflammatory activity of the peptides according to the invention. More precisely, the inhibitory effect of the peptides according to the invention on the LPS-induced IL-6 response in a monocytic cell line (THP-1) was studied and compared to the effect of human lactoferrin by use of the method described by I. Mattsby-Baltzer et al., Pediatr. Res. 40:257-262, 1996. The IL-6 response in the THP-1 cells was induced by addition of LPS. hLF, peptide 3 and peptide 4, respectively, were added 30 minutes after LPS.

E. coli O6K5 [9] = assay: urinary tract infection in mice, bacteria (CFU) in kidney (Example 6); assay type: in vivo; settings: Exp II, mouse strain C3H/Tif, 500 μg per mouse orally 30 minutes after instillation, 24 hours
Protocol: E. coli O6K5 was instilled into the urinary bladder of mice. 30 minutes after instillation the different agents specified in table 5 were administered orally in an amount of 500 μg per mouse and 24 hours after instillation the number of bacteria (CFU) present in bladder and in kidney was determined.
The control group consisted of 10 animals in experiment I and of 23 animals in experiment II. The animals in the control groups were given tap water instead of peptide or hLF.

Molecule: CSCC[C@H](NC(=O)[C@@H]1CC(=O)NCCCC[C@H](NC(=O)[C@H](Cc2ccccc2)NC(=O)[C@H](C)NC(=O)[C@H](CCCCN)NC(=O)[C@@H](NC(C)=O)[C@@H](C)O)C(=O)N[C@@H](Cc2c[nH]c3ccccc23)C(=O)N[C@@H](CCC(N)=O)C(=O)N[C@@H](CCCNC(=N)N)C(=O)N1)C(=O)N[C@@H](CCCNC(=N)N)C(=O)N[C@@H](CCCCN)C(=O)N[C@H](C(=O)N[C@@H](CCCNC(=N)N)C(N)=O)C(C)C [Peptide 7] (Ac-TKAFKWQRDMRKVR-NH2; lactam 5-9)
- Concentration of agent for 100% killing [1]: 3.1 µg/mL
- Concentration of agent for inhibition of growth [1]: 1.5 µg/mL
- Concentration of agent for 100% killing (E. coli O14 [2]): 12.5 µg/mL
- Concentration of agent for inhibition of growth (E. coli O14 [2]): ≦1.5 μg/ml
- concentration needed for killing of 99% of C. albicans, ranking over all pH (in words) (C. albicans [3]; FIG. 2, all different pH): most effective peptide at all different pH
- concentration needed for killing of 99% of C. albicans, compared with the capped cyclic peptides (in words) (C. albicans [3]): better effects than the capped cyclic peptides
- MIC (C. albicans (ATCC 64549); ATCC64549): 6.2 µg/mL (≈ 3.31 µM)
- MMC99% (C. albicans (ATCC 64549); C. albicans ATCC 64549, 2×10^5 cells/ml, BHI diluted 1/100): 6.2 µg/mL
- MMC99% [4]: ≦6.25 μg/ml
- MMC99% (E. coli O6K5 [5]): >20
- MMC99% (C. albicans [6]): 5

Molecule: Peptide 3: cyclic form of SEQ. ID. NO. 2, disulphide bridge between the two cysteines in positions 5 and 22 (Ac-EATKCFQWQRNMRKVRGPPVSCIKR; disulfide 5-22)
- Concentration of agent for 100%/90% killing (E. coli O14 [7]; Exp. I: 100% killing, E. coli O14, 1/100 BHI, 2 hours): 4.4 µg/mL
- Concentration of agent for 100%/90% killing (E. coli O14 [7]; Exp. III: 90% killing, E. coli O14, 0.05 mM KCl (pH 7) without growth medium): 12.5 µg/mL
- ratio hLF/pep. (concentration for 99% killing) (Candida albicans; Exp. I, C. albicans ATCC 64549): >83
- Concentration of agent for 99% killing (Candida albicans; Exp. I, C. albicans ATCC 64549, 0.05 mM KCl pH 7.0, 1-2 hours 37° C.): 0.6 µg/mL
- ratio hLF/pep. (concentration for 99% killing) (Candida albicans; Exp. I, C. albicans CCUG 90028): >83
- Concentration of agent for 99% killing (Candida albicans; Exp. I, C. albicans CCUG 90028, 0.05 mM KCl pH 7.0): 0.6 µg/mL
- ratio hLF/pep. (concentration for 99% killing) (Candida albicans; Exp. II, C. albicans ATCC 64549): >133
- Concentration of agent for 99% killing (Candida albicans; Exp. II, C. albicans ATCC 64549, 0.05 mM KCl pH 7.0): 1.5 µg/mL
- ratio hLF/pep. (concentration for 99% killing) (Candida albicans; Exp. II, C. albicans CCUG 599): >133
- Concentration of agent for 99% killing (Candida albicans; Exp. II, C. albicans CCUG 599, 0.05 mM KCl pH 7.0): 1.5 µg/mL
- ratio hLF/pep. (concentration for 99% killing) (Candida albicans; Exp. II, C. albicans CCUG 1759): >133
- Concentration of agent for 99% killing (Candida albicans; Exp. II, C. albicans CCUG 1759, 0.05 mM KCl pH 7.0): 1.5 µg/mL
- ratio hLF/pep. (concentration for 99% killing) (Candida krusei; C. krusei CCUG 969): 20
- Concentration of agent for 99% killing (Candida krusei; C. krusei CCUG 969, 0.05 mM KCl pH 7.0): 1.25 µg/mL
- ratio hLF/pep. (concentration for 99% killing) (Candida krusei; C. krusei CCUG 35849): 21
- Concentration of agent for 99% killing (Candida krusei; C. krusei CCUG 35849, 0.05 mM KCl pH 7.0): 0.6 µg/mL
- % inhibition of LPS response [8]: 17%
- Statistical comparison of treatment group with control group of the number of bacteria, CFU, present in kidney (p, Mann-Whitney) (E. coli O6K5 [9]): p = 0.0574
- Concentration of agent for 100% killing [1]: 6.2 µg/mL
- Concentration of agent for inhibition of growth [1]: 6.2 µg/mL
- Concentration of agent for 100% killing (E. coli O14 [2]): 12.5 µg/mL
- Concentration of agent for inhibition of growth (E. coli O14 [2]): 3.1 µg/mL
- concentration needed for killing of 99% of C. albicans, compared with the capped cyclic peptides (in words) (C. albicans [3]): better effects than the capped cyclic peptides

Molecule: SEQ. ID. NO. 36: second embodiment, sequence from a position 13-25 to position 31 of human lactoferrin; sequence only in sequence listing (TKCFQWQRNMRKVR; ends and bridges not checked)
- MMC99% [4]: ≦6.25 μg/ml

Molecule: SEQ. ID. NO. 98: 14 amino acids, modified positions 18-31 of human lactoferrin; sequence only in sequence listing (TKKFQWQRNMRKVR)
- MMC99% [4]: ≦6.25 μg/ml

— patent US7803757B2, “Peptides based on the sequence of human lactoferrin and their use” (PharmaSurgics in Sweden AB, priority 1998, dated 2010)
